Reference: paper PMC5218480 (PLoS ONE, 2017)

Tested on: MV-4-11 cells
Assay: Gene expression microarray analysis (Affymetrix PrimeView) and GSEA
Format: cell-based, human
Set-up: RFU PODN (11730768_x_at) / Fold change /veh PODN (11730768_x_at) / RFU LINC00158 (11744669_a_at) / Fold change /veh LINC00158 (11744669_a_at) / RFU DUSP10 (11751237_a_at) / Fold change /veh DUSP10 (11751237_a_at) / RFU ID3 (11757404_x_at) / Fold change /veh ID3 (11757404_x_at) / RFU PLEKHG5 (11737974_s_at) / Fold change /veh PLEKHG5 (11737974_s_at) / RFU LRRC4B (11730491_at) / Fold change /veh LRRC4B (11730491_at) / RFU GIMAP4 (11747438_a_at) / Fold change /veh GIMAP4 (11747438_a_at) / RFU KRT8 (11758183_x_at) / Fold change /veh KRT8 (11758183_x_at) / RFU CNN1 (11734310_a_at) / Fold change /veh CNN1 (11734310_a_at) / RFU VPS37D (11726825_at) / Fold change /veh VPS37D (11726825_at) / RFU C10orf10 (11716522_x_at) / Fold change /veh C10orf10 (11716522_x_at) / RFU KIR2DL2 /// KIR2DL4 /// KIR2DL5A /// KIR2DL5B /// KIR2DS1 /// KIR2DS2 /// KIR2DS3 /// KIR2DS4 /// KIR3DL3 /// KIR3DL3 /// KIR3DS1 (11738374_at) / Fold change /veh KIR2DL2 /// KIR2DL4 /// KIR2DL5A /// KIR2DL5B /// KIR2DS1 /// KIR2DS2 /// KIR2DS3 /// KIR2DS4 /// KIR3DL3 /// KIR3DL3 /// KIR3DS1 (11738374_at) / RFU C1QL1 (11718748_at) / Fold change /veh C1QL1 (11718748_at) / RFU TMPRSS4 (11747572_a_at) / Fold change /veh TMPRSS4 (11747572_a_at) / RFU HAMP (11756126_x_at) / Fold change /veh HAMP (11756126_x_at) / RFU RNFT2 (11725882_a_at) / Fold change /veh RNFT2 (11725882_a_at) / RFU NR4A2 (11747474_a_at) / Fold change /veh NR4A2 (11747474_a_at) / RFU ABCC12 (11746883_a_at) / Fold change /veh ABCC12 (11746883_a_at) / RFU TMEM136 (11760407_x_at) / Fold change /veh TMEM136 (11760407_x_at) / RFU CLDN22 /// WWC2 (11732394_at) / Fold change /veh CLDN22 /// WWC2 (11732394_at) / RFU HLA-DPB1 (11760878_x_at) / Fold change /veh HLA-DPB1 (11760878_x_at) / RFU SPINT1 (11716480_a_at) / Fold change /veh SPINT1 (11716480_a_at) / RFU GAP43 (11754022_s_at) / Fold change /veh GAP43 (11754022_s_at) / RFU A4GNT (11735810_at) / Fold change /veh A4GNT (11735810_at) / RFU PRB3 (11715151_x_at) / Fold change /veh PRB3 (11715151_x_at) / RFU TUBB4B (11761932_at) / Fold change /veh TUBB4B (11761932_at) / RFU CAPN14 (11732068_a_at) / Fold change /veh CAPN14 (11732068_a_at) / RFU TMCC2 (11721928_a_at) / Fold change /veh TMCC2 (11721928_a_at) / RFU IRGQ (11745062_a_at) / Fold change /veh IRGQ (11745062_a_at) / RFU FAM174B (11720279_a_at) / Fold change /veh FAM174B (11720279_a_at) / RFU TMPRSS4 (11748680_a_at) / Fold change /veh TMPRSS4 (11748680_a_at) / RFU FAM212B (11763350_a_at) / Fold change /veh FAM212B (11763350_a_at) / RFU PLEKHG5 (11743358_a_at) / Fold change /veh PLEKHG5 (11743358_a_at) / RFU ZSCAN30 (11745921_a_at) / Fold change /veh ZSCAN30 (11745921_a_at) / RFU CMKLR1 (11741424_a_at) / Fold change /veh CMKLR1 (11741424_a_at) / RFU LOC101060620 /// MAPK8IP1 (11723275_at) / Fold change /veh LOC101060620 /// MAPK8IP1 (11723275_at) / RFU SPTSSB (11747773_x_at) / Fold change /veh SPTSSB (11747773_x_at) / RFU PRSS12 (11739890_at) / Fold change /veh PRSS12 (11739890_at) / RFU BIN1 (11741810_x_at) / Fold change /veh BIN1 (11741810_x_at) / RFU WNT11 (11732464_a_at) / Fold change /veh WNT11 (11732464_a_at) / RFU C10orf10 (11716521_a_at) / Fold change /veh C10orf10 (11716521_a_at) / RFU C5orf56 (11738089_at) / Fold change /veh C5orf56 (11738089_at) / RFU CYB561 (11721691_x_at) / Fold change /veh CYB561 (11721691_x_at) / RFU ANKRD19P (11752326_a_at) / Fold change /veh ANKRD19P (11752326_a_at) / RFU OR2T12 /// OR2T33 /// OR2T8 (11738714_s_at) / Fold change /veh OR2T12 /// OR2T33 /// OR2T8 (11738714_s_at) / RFU VCAN (11748164_a_at) / Fold change /veh VCAN (11748164_a_at) / RFU JSRP1 (11732532_at) / Fold change /veh JSRP1 (11732532_at) / RFU KRTAP10-11 (11738290_x_at) / Fold change /veh KRTAP10-11 (11738290_x_at) / RFU MYO3A (11730013_a_at) / Fold change /veh MYO3A (11730013_a_at) / RFU EBF3 (11725865_a_at) / Fold change /veh EBF3 (11725865_a_at) / RFU CAMK2N1 (11719241_x_at) / Fold change /veh CAMK2N1 (11719241_x_at) / RFU C5orf56 (11738088_a_at) / Fold change /veh C5orf56 (11738088_a_at) / RFU OLFML3 (11715873_a_at) / Fold change /veh OLFML3 (11715873_a_at) / RFU LOC100653217 /// NTM (11731650_a_at) / Fold change /veh LOC100653217 /// NTM (11731650_a_at) / RFU MAPK11 (11762145_a_at) / Fold change /veh MAPK11 (11762145_a_at) / RFU FIZ1 (11724087_x_at) / Fold change /veh FIZ1 (11724087_x_at) / RFU OASL (11726364_x_at) / Fold change /veh OASL (11726364_x_at) / RFU SOX15 (11748057_x_at) / Fold change /veh SOX15 (11748057_x_at) / RFU CD79A (11719716_a_at) / Fold change /veh CD79A (11719716_a_at) / RFU HIST1H1D (11736915_at) / Fold change /veh HIST1H1D (11736915_at) / RFU CASKIN2 (11723855_a_at) / Fold change /veh CASKIN2 (11723855_a_at) / RFU LOC730098 (11760151_x_at) / Fold change /veh LOC730098 (11760151_x_at) / RFU OR4N2 (11742367_at) / Fold change /veh OR4N2 (11742367_at) / RFU PRRT2 (11749266_a_at) / Fold change /veh PRRT2 (11749266_a_at) / RFU SNX32 (11753110_a_at) / Fold change /veh SNX32 (11753110_a_at) / RFU CDHR5 (11726645_a_at) / Fold change /veh CDHR5 (11726645_a_at) / RFU RCAN1 (11760418_a_at) / Fold change /veh RCAN1 (11760418_a_at) / RFU FAM167A (11723789_a_at) / Fold change /veh FAM167A (11723789_a_at) / RFU FAM26E (11764081_at) / Fold change /veh FAM26E (11764081_at) / RFU ISYNA1 (11749810_s_at) / Fold change /veh ISYNA1 (11749810_s_at) / RFU ACY1 (11761880_at) / Fold change /veh ACY1 (11761880_at) / RFU 11764098_at / Fold change /veh 11764098_at / RFU SAMD14 (11745864_x_at) / Fold change /veh SAMD14 (11745864_x_at) / RFU NPB (11741838_a_at) / Fold change /veh NPB (11741838_a_at) / RFU TMPRSS6 (11731388_a_at) / Fold change /veh TMPRSS6 (11731388_a_at) / RFU KRTAP10-2 (11738614_at) / Fold change /veh KRTAP10-2 (11738614_at) / RFU ARHGAP8 /// PRR5-ARHGAP8 (11727945_x_at) / Fold change /veh ARHGAP8 /// PRR5-ARHGAP8 (11727945_x_at) / RFU KRTAP5-7 /// NADSYN1 (11734609_at) / Fold change /veh KRTAP5-7 /// NADSYN1 (11734609_at) / RFU RASL12 (11751679_a_at) / Fold change /veh RASL12 (11751679_a_at) / RFU CDKN2B (11736163_a_at) / Fold change /veh CDKN2B (11736163_a_at) / RFU PRF1 (11729649_at) / Fold change /veh PRF1 (11729649_at) / RFU, ZNF638 /// ZNF638-IT1 / Fold change vs veh, ZNF638 /// ZNF638-IT1 / RFU, PANK3 / Fold change vs veh, PANK3 / RFU, SH3YL1 / Fold change vs veh, SH3YL1 / RFU, ZEB2 / Fold change vs veh, ZEB2 / RFU, NRIP1 / Fold change vs veh, NRIP1 / RFU, PTTG1IP / Fold change vs veh, PTTG1IP / RFU, CAPN2 / Fold change vs veh, CAPN2 / RFU, MED14 / Fold change vs veh, MED14 / RFU, SNORA58 / Fold change vs veh, SNORA58 / RFU, C1orf63 / Fold change vs veh, C1orf63 / RFU, LRRFIP1 / Fold change vs veh, LRRFIP1 / RFU, NDUFAF7 / Fold change vs veh, NDUFAF7 / RFU, SLC12A2 / Fold change vs veh, SLC12A2 / RFU, IBTK / Fold change vs veh, IBTK / RFU, ESF1 / Fold change vs veh, ESF1 / Fold change vs veh, TMEM50B / RFU, TAOK1 / Fold change vs veh, TAOK1 / RFU, ACBD3 / Fold change vs veh, ACBD3 / RFU, TMA16 / Fold change vs veh, TMA16 / RFU, RWDD3 / Fold change vs veh, RWDD3 / RFU, BCAT1 / Fold change vs veh, BCAT1 / RFU, EDEM3 / Fold change vs veh, EDEM3 / RFU, TMEM33 / Fold change vs veh, TMEM33 / RFU, WDR75 / Fold change vs veh, WDR75 / RFU, AHCTF1 / Fold change vs veh, AHCTF1 / RFU, TFRC / Fold change vs veh, TFRC / RFU, ZDHHC17 / Fold change vs veh, ZDHHC17 / RFU, NOM1 / Fold change vs veh, NOM1 / RFU, ARL8B / Fold change vs veh, ARL8B / RFU, ZBTB11 / Fold change vs veh, ZBTB11 / RFU, TAMM41 / Fold change vs veh, TAMM41 / RFU, KIAA1704 /// LOC100996395 / Fold change vs veh, KIAA1704 /// LOC100996395 / RFU, ING1 / Fold change vs veh, ING1 / RFU, TRMT61B / Fold change vs veh, TRMT61B / RFU, FUBP3 / Fold change vs veh, FUBP3 / RFU, TP53 / Fold change vs veh, TP53 / RFU, TNKS2 / Fold change vs veh, TNKS2 / RFU, ZFP14 / Fold change vs veh, ZFP14 / RFU, ACTR2 / Fold change vs veh, ACTR2 / RFU, PPP3R1 / Fold change vs veh, PPP3R1 / RFU, PIK3R1 / Fold change vs veh, PIK3R1 / RFU, HNRNPA1 / Fold change vs veh, HNRNPA1 / RFU, RNF170 / Fold change vs veh, RNF170 / RFU, ZNF28 / Fold change vs veh, ZNF28 / RFU, RNGTT / Fold change vs veh, RNGTT / RFU, OGT / Fold change vs veh, OGT / RFU, BRD1 / Fold change vs veh, BRD1 / RFU, MARS / Fold change vs veh, MARS / RFU, ZNF655 / Fold change vs veh, ZNF655 / RFU, FAHD1 / Fold change vs veh, FAHD1 / RFU, BDP1 / Fold change vs veh, BDP1 / RFU, LRRCC1 / Fold change vs veh, LRRCC1 / RFU, ARID1A / Fold change vs veh, ARID1A / RFU, ZNF146 / Fold change vs veh, ZNF146 / RFU, ZNF330 / Fold change vs veh, ZNF330 / RFU, GPN3 / Fold change vs veh, GPN3 / RFU, C9orf123 / Fold change vs veh, C9orf123 / RFU, N4BP2L2 / Fold change vs veh, N4BP2L2 / RFU, ARFIP1 / Fold change vs veh, ARFIP1 / RFU, FAM179B / Fold change vs veh, FAM179B / RFU, BCL10 / Fold change vs veh, BCL10 / RFU, UHRF1BP1L / Fold change vs veh, UHRF1BP1L / RFU, BET1 / Fold change vs veh, BET1 / RFU, CNOT2 / Fold change vs veh, CNOT2 / RFU, ZNF268 / Fold change vs veh, ZNF268 / Fold change vs veh, ZNF507 / RFU, DGCR2 / Fold change vs veh, DGCR2 / RFU, WDSUB1 / Fold change vs veh, WDSUB1 / Fold change vs veh, HSP90B1 /// MIR3652 / RFU, ADSS / Fold change vs veh, ADSS / RFU, GK / Fold change vs veh, GK / RFU, ZNF148 / Fold change vs veh, ZNF148 / RFU, TAF9 / Fold change vs veh, TAF9 / RFU, SLC1A5 / Fold change vs veh, SLC1A5 / RFU, SLMO2 / Fold change vs veh, SLMO2 / RFU, ABCC4 / Fold change vs veh, ABCC4 / RFU, LOC101060439 /// RAP1B / Fold change vs veh, LOC101060439 /// RAP1B / RFU, RFX7 / Fold change vs veh, RFX7 / RFU, GTPBP10 / Fold change vs veh, GTPBP10 / RFU, CNEP1R1 / Fold change vs veh, CNEP1R1 / RFU, BIVM-ERCC5 /// ERCC5 / Fold change vs veh, BIVM-ERCC5 /// ERCC5 / RFU, ILF3 / Fold change vs veh, ILF3 / RFU 11762660_at / Fold change /veh 11762660_at / RFU VCAN (11757783_s_at) / Fold change /veh VCAN (11757783_s_at) / RFU DDX43 (11728927_at) / Fold change /veh DDX43 (11728927_at) / RFU KRT8 (11758188_x_at) / Fold change /veh KRT8 (11758188_x_at) / RFU NKD1 (11759106_at) / Fold change /veh NKD1 (11759106_at) / RFU SRD5A1 (11742802_a_at) / Fold change /veh SRD5A1 (11742802_a_at) / RFU TPSAB1 /// TPSB2 (11721975_s_at) / Fold change /veh TPSAB1 /// TPSB2 (11721975_s_at) / RFU GSTM3 (11746129_a_at) / Fold change /veh GSTM3 (11746129_a_at) / RFU IL23R (11737362_x_at) / Fold change /veh IL23R (11737362_x_at) / RFU TMEM51 (11727254_a_at) / Fold change /veh TMEM51 (11727254_a_at) / RFU PIWIL2 (11732686_x_at) / Fold change /veh PIWIL2 (11732686_x_at) / RFU ORM1 (11744905_x_at) / Fold change /veh ORM1 (11744905_x_at) / RFU CCDC152 (11743942_at) / Fold change /veh CCDC152 (11743942_at) / RFU ECM1 (11717891_a_at) / Fold change /veh ECM1 (11717891_a_at) / RFU IL23R (11748794_a_at) / Fold change /veh IL23R (11748794_a_at) / RFU TNFAIP8L3 (11732012_x_at) / Fold change /veh TNFAIP8L3 (11732012_x_at) / RFU MBOAT4 (11741988_at) / Fold change /veh MBOAT4 (11741988_at) / RFU 11764193_at / Fold change /veh 11764193_at / RFU TMEM53 (11763286_at) / Fold change /veh TMEM53 (11763286_at) / RFU MAGEB2 (11727129_at) / Fold change /veh MAGEB2 (11727129_at) / RFU TMEM200A (11744735_a_at) / Fold change /veh TMEM200A (11744735_a_at) / RFU CCDC152 (11751479_a_at) / Fold change /veh CCDC152 (11751479_a_at) / RFU FAM211A (11726209_a_at) / Fold change /veh FAM211A (11726209_a_at) / RFU RGS16 (11746705_a_at) / Fold change /veh RGS16 (11746705_a_at) / RFU VCAN (11755009_s_at) / Fold change /veh VCAN (11755009_s_at) / RFU RHOB (11743442_s_at) / Fold change /veh RHOB (11743442_s_at) / RFU RGS16 (11720943_a_at) / Fold change /veh RGS16 (11720943_a_at) / RFU RGS16 (11720944_at) / Fold change /veh RGS16 (11720944_at) / RFU, VPS4B / Fold change vs veh, VPS4B / RFU, CREB1 / Fold change vs veh, CREB1 / RFU, DNAJC13 / Fold change vs veh, DNAJC13 / RFU, GNAQ / Fold change vs veh, GNAQ / RFU, CDK5R1 / Fold change vs veh, CDK5R1 / RFU, ZRANB3 / Fold change vs veh, ZRANB3 / RFU, CUL4A / Fold change vs veh, CUL4A / RFU, CCNY / Fold change vs veh, CCNY / RFU, UFL1 / Fold change vs veh, UFL1 / RFU, COG3 / Fold change vs veh, COG3 / RFU, DIAPH2 / Fold change vs veh, DIAPH2 / RFU, SKA2 / Fold change vs veh, SKA2 / RFU, AFF3 / Fold change vs veh, AFF3 / RFU, LMF1 / Fold change vs veh, LMF1 / RFU, IPO11 / Fold change vs veh, IPO11 / RFU, DFFB / Fold change vs veh, DFFB / RFU, FOXP1 / Fold change vs veh, FOXP1 / RFU, CARD8 / Fold change vs veh, CARD8 / RFU, STRN3 / Fold change vs veh, STRN3 / RFU, ADK / Fold change vs veh, ADK / RFU, RASSF2 / Fold change vs veh, RASSF2 / RFU, WIPF1 / Fold change vs veh, WIPF1 / RFU, LARP1B / Fold change vs veh, LARP1B / RFU, RASA1 / Fold change vs veh, RASA1 / RFU, RB1 / Fold change vs veh, RB1 / RFU, PPFIA1 / Fold change vs veh, PPFIA1 / RFU, MAT2A / Fold change vs veh, MAT2A / RFU, CCT5 / Fold change vs veh, CCT5 / RFU, WDR92 / Fold change vs veh, WDR92 / RFU, CUX1 / Fold change vs veh, CUX1 / RFU, TTC7A / Fold change vs veh, TTC7A / RFU, TMEM135 / Fold change vs veh, TMEM135 / RFU, DEPTOR / Fold change vs veh, DEPTOR / RFU, CPM / Fold change vs veh, CPM / RFU, DNAJB6 / Fold change vs veh, DNAJB6 / RFU, CACNA2D3 / Fold change vs veh, CACNA2D3 / RFU, DTX4 / Fold change vs veh, DTX4 / RFU, TFCP2 / Fold change vs veh, TFCP2 / RFU, GMCL1 /// GMCL1P1 / Fold change vs veh, GMCL1 /// GMCL1P1 / RFU, AEBP2 / Fold change vs veh, AEBP2 / RFU, SNHG1 /// SNORD22 /// SNORD25 /// SNORD26 /// SNORD27 /// SNORD28 /// SNORD29 /// SNORD31 / Fold change vs veh, SNHG1 /// SNORD22 /// SNORD25 /// SNORD26 /// SNORD27 /// SNORD28 /// SNORD29 /// SNORD31 / Fold change (Aza/veh), C12orf56 (ProbeSet 11735607_a_at) / Fold change (ACY-1035/veh), C12orf56 (ProbeSet 11735607_a_at) / Fold change (Aza/veh), FGFR1OP (ProbeSet 11751329_s_at) / Fold change (ACY-1035/veh), FGFR1OP (ProbeSet 11751329_s_at) / Fold change (Aza/veh), VPS36 (ProbeSet 11739960_a_at) / Fold change (ACY-1035/veh), VPS36 (ProbeSet 11739960_a_at) / RFU SYPL1 (11715823_x_at) / Fold change /veh SYPL1 (11715823_x_at) / RFU IGFBP7 (11715501_s_at) / Fold change /veh IGFBP7 (11715501_s_at) / RFU REEP3 (11722064_at) / Fold change /veh REEP3 (11722064_at) / RFU IGLL1 (11728026_x_at) / Fold change /veh IGLL1 (11728026_x_at): dose or concentration left out as unconfirmed
Conditions: ProbeSet 11739263_x_at; LIST D

`Nc1ncn([C@@H]2O[C@H](CO)[C@@H](O)[C@H]2O)c(=O)n1` [azacitidine] was tested, and the “RFU, VPS4B” value was 59.01 RFU.
